Six compounds from patent US4758580A, “Inhibiting growth of tumors with certain substituted phenoxy dimethyl alkanoic acids, esters or salts” (Yamanouchi Pharmaceutical Co., Ltd., priority 1985, dated 1988) can be followed below.

Assay [1] concerns Ehrlich solid tumor. Description: Anti-tumor test against Ehrlich solid tumor. It is filed as in vivo, ddY/SLC mice. As to the method: Ehrlich tumor cells, 2×10^6, on Day 7 after intraperitoneal transplantation to ddY/SLC mice were subcutaneously transplanted in the left abdomen of ddY/SLC mice (5 week age, male), 10 each grouped into one. The active component was intraperitoneally or orally administered in a definite dose 24 hours after the transplantation, according to the schedule shown in Table 1 (A), (B) or (C). An effect of inhibiting growth of tumor was compared, by measuring the long diameter and short diameter of the tumor on 14, 20 and 21 Days after the transplantation, calculating the tumor size (mm^2) and determining a tumor growth inhibition rate of the group administered with the active component to the control group according to the following equation:
Growth inhibition rate (%)=(C-T)/C×100
T: means tumor size (mm^2) in the active component-administered group
C: mean tumor size (mm^2) in the control group

The subject of assay [2] is melanoma BL-6. Description: Inhibition of experimental metastasis (to the lung) of melanoma BL-6 in mice. Format: in vivo, male BDF1 /SLC mice. The note with it: 22th day. As to the method: (b) Inhibition of experimental metastasis (to the lung) of melanoma BL-6 in mice
BL-6 cancer cells, 5×10^4, were inoculated into the tail veins of male BDF1 /SLC mice (6 week age) of 6 mice each being grouped in one (13 mice for the control group). The test compounds were administered orally in a definite dose 24 hours after the inoculation. In order to see metastasis-inhibitory effect, on 22th day after the inoculation, the mice were anatomised to observe the metastasis to the lungs. The degree of metastasis was evaluated by the number of pulmonary nodules. [formula] T: Median number of pulmonary nodules of the administered group C: Median number of pulmonary nodules of the control group

Assay [3] relates to MM-46 solid tumor. Description: Test against mouse mammalian MM-46 solid tumor. It is filed as in vivo, C3 H/He/SLC mice. Conditions: 1-9 Days. As to the method: (§1) MM-46 Tumor cells, 1×10^6, on Day 7 after intraperitoneal transplantation to C3 H/He/SLC mice were subcutaneously transplanted to the left abdomen of C3 H/He/SLC mice (5 week age, male) of 8 mice each being grouped in one (21 mice for the control group). The active component was orally administered in a definite dose 24 hours after the transplantation according to the schedule shown in Table 2. An effect of tumor growth inhibition was compared by measuring the long diameter and short diameter of the tumor on Days 14 and 21 after the transplantation, calculating the tumor size (mm^2) and determining a tumor growth inhibition rate of the active component-administered group to the control group.

Assay [4] has as its system Meth A solid tumor. Briefly: Anti-tumor test against methyl cholanthrene-induced Meth A solid tumor. It is filed as in vivo, Balb/C/SLC mice. The note with it: 1-8 Days. As to the method: as §1, with “Meth A tumor” for “MM-46 Tumor”, “1.5×10^6,” for “1×10^6,”, “Balb/C/SLC” for “C3 H/He/SLC”, “(16” for “(21”, “3.” for “2.”, “15” for “14”
The mark [5] stands for this setting: Day 14, 25 mg/kg i.p., Days 1, 2, 3, 5, 6, 7 & 9.
The mark [6] stands for this setting: Day 14, 50 mg/kg i.p., Days 1, 2, 3, 5, 6, 7 & 9.
The mark [7] stands for this setting: Day 14, 100 mg/kg i.p., Days 1, 2, 3, 5, 6, 7 & 9.
Setting [8] is: Day 21, 25 mg/kg i.p., Days 1, 2, 3, 5, 6, 7 & 9.
[9] abbreviates: Day 21, 50 mg/kg i.p., Days 1, 2, 3, 5, 6, 7 & 9.
Setting [10] is: Day 21, 100 mg/kg i.p., Days 1, 2, 3, 5, 6, 7 & 9.
The mark [11] stands for this setting: Day 14, 50 mg/kg i.p., Days 1, 2, 3, 4, 6, 7, 8, 9.
The mark [12] stands for this setting: Day 14, 100 mg/kg i.p., Days 1, 2, 3, 4, 6, 7, 8, 9.
Where [13] appears, read: Day 21, 50 mg/kg i.p., Days 1, 2, 3, 4, 6, 7, 8, 9.
Setting [14] is: Day 21, 100 mg/kg i.p., Days 1, 2, 3, 4, 6, 7, 8, 9.
Where [15] appears, read: 50 mg/kg oral, 1, 2, 3, 5, 6, 7, 8, 9 and 10 days.
[16] abbreviates: 100 mg/kg oral, 1, 2, 3, 5, 6, 7, 8, 9 and 10 days.
Where [17] appears, read: Day 14, 1.0 mg/kg i.p., Days 1, 2, 3, 5 & 6.
The mark [18] stands for this setting: Day 21, 1.0 mg/kg i.p., Days 1, 2, 3, 5 & 6.

With `CCOC(=O)C(C)(C)CCCCCOc1ccc(OCCCCCn2ccnc2)cc1` [Compound C], the “Growth Inhibition Rate” value in assay [1] (setting [5]) is listed as 18.4%; in assay [1] (setting [6]), 42.4%; in assay [1] (setting [7]), 54.2%; in assay [1] (setting [8]), 31.9%; in assay [1] (setting [9]) it was 61.0%; in assay [1] (setting [10]) it was 4.2%. The “Size of Tumor” value stood at 191.1 ± 88.8 mm^2 in assay [1] (setting [5]); 135.0 ± 66.9 mm^2 in assay [1] (setting [6]); 107.3 ± 46.7 mm^2 in assay [1] (setting [7]); 363.1 ± 188.8 mm^2 in assay [1] (setting [8]); 207.9 ± 139.7 mm^2 in assay [1] (setting [9]); 190.7 ± 69.1 mm^2 in assay [1] (setting [10]).

For `COC(=O)C(C)(C)CCCOc1ccc(OCCCOc2cccnc2)cc1` [Compound I, methyl 2,2-dimethyl-5-[p-[3-(3-pyridyloxy)propoxy]phenoxy]pentanoate], the “Growth Inhibition Rate” value in assay [1] (setting [5]) was determined as 29.6%; in assay [1] (setting [6]), 26.2%; in assay [1] (setting [7]), 36.5%; in assay [1] (setting [8]) it was 36.9%; in assay [1] (setting [9]), 30.7%; in assay [1] (setting [10]) it was 45.6%. Moreover, the “Size of Tumor” value in assay [1] (setting [5]) was found to be 164.9 ± 96.2 mm^2; in assay [1] (setting [6]), 172.8 ± 82.9 mm^2; in assay [1] (setting [7]) it was 148.7 ± 66.8 mm^2; in assay [1] (setting [8]), 336.6 ± 160.0 mm^2; in assay [1] (setting [9]), 369.1 ± 203.5 mm^2; in assay [1] (setting [10]), 290.2 ± 115.5 mm^2.

`CCOC(=O)C(C)(C)CCCCOc1ccc(OCCCCCOc2ccccn2)cc1` [Compound J, ethyl 6-[p-[5-(2-pyridyloxy)pentyloxy)phenoxy]-2,2-dimethylhexanoate]: the “Growth Inhibition Rate” value worked out at 20.9% in assay [1] (setting [11]), 34.7% in assay [1] (setting [12]), 19.2% in assay [1] (setting [13]) and 38.2% in assay [1] (setting [14]). For the same compound, the “Size of Tumor” value in assay [1] (setting [11]) is 201.7 ± 48.2 mm^2; in assay [1] (setting [12]) it was 166.5 ± 65.3 mm^2; in assay [1] (setting [13]), 344.7 ± 108.4 mm^2; in assay [1] (setting [14]), 263.5 ± 97.1 mm^2.

Regarding `O=c1[nH]c(=O)n(C2CCCO2)cc1F` (stereo not shown) [Futoraful, reference compound], in assay [2] (setting [15]), the Pulmonary metastasis-inhibition rate turned out to be 35.7%; the “The number of pulmonary nodules, median” value is reported as 13.5; the “The number of pulmonary nodules, range” value is reported as 1-49. Moreover, in assay [2] (setting [16]), the Pulmonary metastasis-inhibition rate worked out at 69.0%; the “The number of pulmonary nodules, median” value worked out at 6.5; the “The number of pulmonary nodules, range” value is given as 1-16.

Regarding `CO[C@@]12[C@H](COC(N)=O)C3=C(C(=O)C(C)=C(N)C3=O)N1C[C@@H]1N[C@@H]12` [Mitomycin, reference compound], the results for the “Growth Inhibition Rate” value in assay [1] (setting [17]) and in assay [1] (setting [18]) were 67.7% and 80.0%, respectively. Besides, the “Size of Tumor” value in assay [1] (setting [17]) was 75.6 ± 31.5 mm^2; in assay [1] (setting [18]), 106.8 ± 62.2 mm^2.

`O=c1[nH]c(=O)n(C2CCCO2)cc1F` (stereo not shown) [Tetrahydrofuryl-5-fluorouracil, reference compound]: the “Growth Inhibition Rate” value was 14.2% in assay [3] (Day 14, 50 mg/kg p.o.); 14.7% in assay [3] (Day 14, 100 mg/kg p.o.); 26.9% in assay [3] (Day 21, 50 mg/kg p.o.); 26.0% in assay [3] (Day 21, 100 mg/kg p.o.); 45.1% in assay [4] (Day 15, 50 mg/kg p.o.); 58.6% in assay [4] (Day 15, 100 mg/kg p.o.). Also, the “Growth Inhibition Rate” value in assay [4] (Day 21, 50 mg/kg p.o.) is 50.7%; in assay [4] (Day 21, 100 mg/kg p.o.), 44.7%. The “Size of Tumor” value in assay [3] (Day 14, 50 mg/kg p.o.) is reported as 216.0 ± 55.1 mm^2; in assay [3] (Day 14, 100 mg/kg p.o.) it was 214.8 ± 55.6 mm^2; in assay [3] (Day 21, 50 mg/kg p.o.), 247.0 ± 101.8 mm^2; in assay [3] (Day 21, 100 mg/kg p.o.) it was 250.1 ± 92.9 mm^2; in assay [4] (Day 15, 50 mg/kg p.o.) it was 123.4 ± 69.9 mm^2; in assay [4] (Day 15, 100 mg/kg p.o.), 93.1 ± 50.3 mm^2. Also, the “Size of Tumor” value in assay [4] (Day 21, 50 mg/kg p.o.) came out at 235.8 ± 124.4 mm^2; in assay [4] (Day 21, 100 mg/kg p.o.) it was 264.4 ± 110.6 mm^2.
